The results in this text go back to patent US20240150339A1, “Compounds and Their Use as PDE4 Activators” (Mironid Limited, priority 2021, published 2024).

SMILES strings stand for the structures.

The test system of one experiment is m-IMCD3 cells. In words: Inhibition of PGE2-stimulated in vitro cyst formation in 3D culture of m-IMCD3 cells. The experiment is classed as cell-based, mouse. The conditions noted are these: Mus musculus, mIMCD3, 144 h; 10 μM test compound; mean cyst area (%) compared to 100% for (DMSO + PGE2) and 0% for DMSO control; 100 nM PGE2; 6 days; read-out: % Cyst area after incubation with 10 μM test compound. The protocol: HEK 293 and MDCK cells (Public Health England, Cell Culture Collections) were maintained in Dulbecco's Modified Eagle's Medium (DMEM) supplemented with 10% (v/v) fetal bovine serum (FBS) (Seralab), 2 mM L-glutamine and 100 U/ml penicillin streptomycin cocktail (ThermoFisher); termed complete media. Clonal HEK 293 cell lines were maintained in complete media supplemented with 0.6 mg/mL G418 (Enzo Life Sciences). Mouse inner medullary collecting duct (m-IMCD3) cells [American Type Culture Collection (ATCC)] were maintained in media consisting of DMEM/Hams F-12 50/50 Mix (DMEM F12; Corning) supplemented with penicillin streptomycin cocktail (100 U/ml) and FBS (10% v/v) (DMEM F12-10% FBS).
The mouse Inner Medullary Collecting Duct cell line (m-IMCD3) spontaneously forms cystic spheroids in 3D culture with a Type 1 collagen/Matrigel extracellular matrix. This process can be stimulated with agents which raise intracellular cAMP, such as PGE2, and is used as an in vitro model for the formation of cystic structures in the kidneys of patients with ADPKD.
Rat Collagen I (Fisher Scientific) is prepared on ice by neutralising with 1M NaOH and diluting with a 2×volume of DMEM/F12+10% FBS for coating plate (coating mix) and a 2.2 volume of DMEM/F12+10% FBS for cell plating (plating mix). This is mixed 1:1.1 with ice cold Matrigel (Corning) for coating plates (coating mix), and 1:0.95 with Matrigel for cell plating (plating mix).
The assay is conducted in the wells of a 96-well plate culture dish using a total volume of 130 μl of collagen/Matrigel/DMEM F12-10% FBS suspension in growth media for each matrix plug per individual well. Initially, 30 μl of collagen/Matrigel/DMEM F12-10% FBS (coating mix) is added into the well of a 96 well plate and the collagen is set to a gel by incubating at 37° C. for at least 15 minutes. A second layer of 100 μl collagen/Matrigel suspension (plating mix) containing m-IMCD3 cells (2.75×10^6 m-IMCD3 cells per 96-well plate) is layered over the coating mix and the collagen/Matrigel/cell mix again set to a gel by incubating at 37° C. Cell cultures are maintained at 37° C. in an atmosphere of 5% CO2, 95% air.
Between 18 and 24h after plating, test compound(s) as DMSO stock solutions [0.1% (v/v) final DMSO concentration] and PGE2 (100 nM final concentration) in DMEM F12-10% FBS are added in quadruplicate wells per condition. Media, togetherwith the test compound and PGE2 are replenished after 2 or 3 days. After 6 days of culture z stack images of the wells are captured using the Nikon Eclipse Ti2-E microscope. Nikon General Analysis software is used to measure the following parameters in each well: the mean cyst area, the number of cysts, and the total cyst area.
PDE4 long form activators inhibited in vitro cyst formation in m-IMCD3 cells. Data are shown in FIG. 2 and Table 5 as mean cyst area (%), compared to 100% for (DMSO+PGE2) and 0% for DMSO control.
As for `O=C(N[C@H]1CCOc2ccccc21)c1ccc2nc(N3CCN(CCO)CC3)sc2c1` [Example 120, (S)-N-(chroman-4-yl)-2-(4-(2-hydroxyethyl)piperazin-1-yl)benzo[d]thiazole-6-carboxamide], the activity at 10 µM was -5%.
Still for that read-out and setting: under `O=C(N[C@H]1CCOc2ccccc21)c1ccc2nc(N3CC4CCC(C3)N4)sc2c1` [Example 121, 2-(3,8-diazabicyclo[3.2.1]octan-3-yl)-N-((S)-chroman-4-yl)benzo[d]thiazole-6-carboxamide] stands 15%; under `O=C(NCc1ccc(F)cc1)c1ccc2nc(C3CCNCC3)sc2c1` [Example 124, N-(4-fluorobenzyl)-2-(piperidin-4-yl)benzo[d]thiazole-6-carboxamide], 11%; under `O=C(N[C@H]1CCc2ccccc21)c1ccc2nc(C3CCNCC3)sc2c1` [Example 127, (S)-N-(2,3-dihydro-1H-inden-1-yl)-2-(piperidin-4-yl)benzo[d]thiazole-6-carboxamide], 13%.
The same measure, in the same setting: the figure for `O=C(N[C@@H]1c2ccccc2C[C@H]1O)c1ccc2nc(C3CCNCC3)sc2c1` [Example 128, N-((1R,2R)-2-hydroxy-2,3-dihydro-1H-inden-1-yl)-2-(piperidin-4-yl)benzo[d]thiazole-6-carboxamide] is 3%; for `O=C(N[C@@H]1c2ccccc2C[C@@H]1O)c1ccc2nc(C3CCNCC3)sc2c1` [Example 130, N-((1R,2S)-2-hydroxy-2,3-dihydro-1H-inden-1-yl)-2-(piperidin-4-yl)benzo[d]thiazole-6-carboxamide] it is -2%; for `O=C(NC1CCCC1)c1ccc2nc(C3CCNCC3)sc2c1` [Example 134, N-cyclopentyl-2-(piperidin-4-yl)benzo[d]thiazole-6-carboxamide] it is 16%.
Still for that read-out and setting: under `O=C(NC1CCOCC1)c1ccc2nc(C3CCNCC3)sc2c1` [Example 138, 2-(piperidin-4-yl)-N-(tetrahydro-2H-pyran-4-yl)benzo[d]thiazole-6-carboxamide] stands 20%; under `CCN1CCC(c2nc3ccc(C(=O)N[C@@H]4c5ccccc5C[C@@H]4O)cc3s2)CC1` [Example 166, 2-(1-ethylpiperidin-4-yl)-N-((1R,2S)-2-hydroxy-2,3-dihydro-1H-inden-1-yl)benzo[d]thiazole-6-carboxamide], -10%; under `O=C(NC1CCCC1)c1ccc2nc(C3CCN(CCO)CC3)sc2c1` [Example 171, N-cyclopentyl-2-(1-(2-hydroxyethyl)piperidin-4-yl)benzo[d]thiazole-6-carboxamide], 13%.
Turning to `COCCOCCN1CCC(c2nc3ccc(C(=O)N[C@H]4CCOc5ccccc54)cc3s2)CC1` [Example 175, (S)-N-(chroman-4-yl)-2-(1-(2-(2-methoxyethoxy)ethyl)piperidin-4-yl)benzo[d]thiazole-6-carboxamide], the activity at 10 µM is -14%.
The same measure, in the same setting: under `Cc1cc(C(=O)NC2CCCC2)cc2sc(C3CCNCC3)nc12` [Example 181, N-cyclopentyl-4-methyl-2-(piperidin-4-yl)benzo[d]thiazole-6-carboxamide] stands 13%.
Still for that read-out and setting: under `Cc1cc(C(=O)N[C@H]2CCOc3ccccc32)cc2sc(C3CCNCC3)nc12` [Example 186, (S)-N-(chroman-4-yl)-4-methyl-2-(piperidin-4-yl)benzo[d]thiazole-6-carboxamide] stands 4%.
With `CCN1CCC(c2nc3cc(C)c(C(=O)N[C@H]4CCOc5ccccc54)cc3s2)CC1` [Example 191, (S)-N-(chroman-4-yl)-2-(1-ethylpiperidin-4-yl)-5-methylbenzo[d]thiazole-6-carboxamide], the activity at 10 µM stood at 3%.
The same measure, in the same setting: the figure for `CCN1CCC(c2nc3ccc(C(=O)NC4CCCC4)c(C)c3s2)CC1` [Example 193, N-cyclopentyl-2-(1-ethylpiperidin-4-yl)-7-methylbenzo[d]thiazole-6-carboxamide] is 2%; for `CCN1CCC(c2nc3ccc(C(=O)N[C@H]4CCc5ccccc54)c(C)c3s2)CC1` [Example 196, (S)-N-(2,3-dihydro-1H-inden-1-yl)-2-(1-ethylpiperidin-4-vy)-7-methylbenzo[d]thiazole-6-carboxamide] it is 10%; for `COc1cc2nc(C3CCNCC3)sc2cc1C(=O)NC1CCOCC1` [Example 200, 5-methoxy-2-(piperidin-4-yl)-N-(tetrahydro-2H-pyran-4-yl)benzo[d]thiazole-6-carboxamide] it is 3%.
On the same count and under the same terms, the figure for `Cc1cc(C(=O)NC2CCCC2)cc2sc(N3CCNCC3)nc12` [Example 206, N-cyclopentyl-4-methyl-2-(piperazin-1-yl)benzo[d]thiazole-6-carboxamide] is 14%; for `CCN1CCN(c2nc3c(C)cc(C(=O)NC4CCOCC4)cc3s2)CC1` [Example 210, 2-(4-ethylpiperazin-1-yl)-4-methyl-N-(tetrahydro-2H-pyran-4-yl)benzo[d]thiazole-6-carboxamide] it is 3%.
On the same count and under the same terms, the figure for `Cc1c(C(=O)N[C@H]2CCOc3ccccc32)ccc2nc(N3CCNCC3)sc12` [Example 219, (S)-N-(chroman-4-yl)-7-methyl-2-(piperazin-1-yl)benzo[d]thiazole-6-carboxamide] is 2%.
Consider `CCN1CCN(c2nc3c(OC)cc(C(=O)NC4CCCC4)cc3s2)CC1` [Example 222, N-cyclopentyl-2-(4-ethylpiperazin-1-yl)-4-methoxybenzo[d]thiazole-6-carboxamide], for which the activity at 10 µM is 1%.
In the case of `COc1cc2nc(N3CCNCC3)sc2cc1C(=O)N[C@H]1CCc2ccccc21` [Example 224, (S)-N-(2,3-dihydro-1H-inden-1-yl)-5-methoxy-2-(piperazin-1-yl)benzo[d]thiazole-6-carboxamide], the activity at 10 µM turned out to be 8%.
The same measure, in the same setting: the figure for `Cc1cc(C(=O)N[C@H]2CCOc3ccccc32)c(C)c2sc(C3CCNCC3)nc12` [Example 230, (S)-N-(chroman-4-yl)-4,7-dimethyl-2-(piperidin-4-yl)benzo[d]thiazole-6-carboxamide] is 25%; for `CN1CCC(c2nc3c(Cl)cc(C(=O)NC4CCCC4)cc3s2)CC1` [Example 231, 4-chloro-N-cyclopentyl-2-(1-methylpiperidin-4-yl)benzo[d]thiazole-6-carboxamide] it is 1%; for `CC(C)NC(=O)c1cc(C2CC2)c2nc(C3CCNCC3)sc2c1` [Example 232, 4-cyclopropyl-N-isopropyl-2-(piperidin-4-yl)benzo[d]thiazole-6-carboxamide] it is -2%.
Still for that read-out and setting: the figure for `O=C(NC1CCC1)c1cc(Cl)c2nc(N3CCNCC3)sc2c1` [Example 234, 4-chloro-N-cyclobutyl-2-(piperazin-1-yl)benzo[d]thiazole-6-carboxamide] is 3%; for `O=C(NC1CCCC1)c1cc(Br)c2nc(N3C4CCC3CNC4)sc2c1` [Example 237, 2-(3,8-diazabicyclo[3.2.1]octan-8-yl)-4-bromo-N-cyclopentylbenzo[d]thiazole-6-carboxamide] it is 11%.
The same measure, in the same setting: the figure for `O=C(NC1CCC(F)(F)CC1)c1ccc2nc(N3C4CCC3CN(CCCO)C4)sc2c1` [Example 243, N-(4,4-difluorocyclohexyl)-2-(3-(3-hydroxypropyl)-3,8-diazabicyclo[3.2.1]octan-8-yl)benzo[d]thiazole-6-carboxamide] is 6%; for `CC(CO)c1cc(C(=O)NC2CCCC2)cc2sc(N3C4CCC3CNC4)nc12` (stereo not shown) [Example 249, N-cyclopentyl-2-(3,8-diazabicyclo[3.2.1]octan-8-yl)-4-(1-hydroxypropan-2-yl)-benzo[d]thiazole-6-carboxamide] it is 9%.
`O=C(NC1CCCC1)c1ccc2nc(N3CC4(CNC4)C3)sc2c1` [Example 255, N-cyclopentyl-2-(2,6-diazaspiro[3.3]heptan-2-yl)benzo[d]thiazole-6-carboxamide]: the activity at 10 µM was found to be 11%.

Still in this experiment, the particulars now being: result in words.
Consider `CCN1CCC(c2nc3cc(C)c(C(=O)N[C@H]4CCOc5ccccc54)cc3s2)CC1` [Example 191, (S)-N-(chroman-4-yl)-2-(1-ethylpiperidin-4-yl)-5-methylbenzo[d]thiazole-6-carboxamide], for which the “Inhibition of PGE2-stimulated cyst formation in 3D culture of m-IMCD3 cells (FIG. 2)” value is recorded as “concentration-dependent inhibition”.
